# According to patent publication US20120136033A1, “Small Molecule Antagonists of Phosphatidylinositol-3,4,5-Triphosphate (PIP3) and Uses Thereof” (President and Fellows of Harvard College, priority 2009, published 2012):
# Columns and labels:
# PI3K-PDK1-Akt pathway = PI3K-PDK1-Akt pathway phosphorylation events in U87MG cells; type: cell-based, human
# Method: The effect of PIT-1 on PIP3-mediated signaling was examined in U87MG glioblastoma cells, which show elevated basal levels of PIP3 due to the loss of PTEN. Pore N et al. (2003) Cancer Res 63:236-41.
# U87MG cells [1] = test: U87MG cell viability, ATP assay; type: cell-based, human
# Method: U87MG cells were incubated with PITs (12.5-100 μM) for 48 hr. Cell viability was determined using ATP assay.
# Based on the critical role of PIP3-dependent Akt signaling in the regulation of cell survival, the effect of PIT-1 on the cancer cell viability was tested. Cancer cells were seeded into 96-well plates (white plates for ATP assay; black plates for fluorescent assay; clear plates for MTS assay) at the density of 5-10×10^3 cells per well in 100 μl of the appropriate media. Compounds were added at a series of concentrations and incubated for different times. For the ATP assay, a luminescence-based commercial kit (CellTiter-Glo, Promega, Madison, Wis.) was used. Thirty microliters of cell lysis/ATP detection reagent was added to each well, mixed for 10 min at room temperature, and the luminescence was measured using a Wallac Victor 3 plate reader (Perkin-Elmer, Wellesley, Mass.). For the MTS assay, a CellTiter 96 AQueous Non-Radioactive Cell Proliferation Assay Kit (Promega, Madison, Wis., USA) was used. Twenty microliters of the combined MTS/PMS solution was added into each well, incubated for 4 hr at 37° C., and the absorbance at 490 nm was measured using a Wallac Victor 3 plate reader. For the Sytox cell death assay, measuring loss of plasma membrane integrity, cells were incubated with 1 μM Sytox Green reagent (Molecular Probes, Eugene, Oreg.) for 30 min at 37° C. and the fluorescence intensity was measured using Wallac Victor 3 plate reader with excitation at 485 nm and emission at 545 nm. Next, 5 μl of 20% (v/v) Triton X-100 solution was added to each well and incubated for 1 hr at 37° C., and the signal was measured again. The ratio of values (percentage of dead cells in each well) before and after Triton X-100 treatment was calculated and normalized to the relevant controls not subjected to the cytotoxic stimuli. IC50 values were determined using Origin6 software (MicroCal, LLC, Northampton, Mass.).
# human cancer cells = test: transwell (Boyden chamber) migration of cancer cells; type: cell-based
# Method: Two models of cell migration were used, a transwell migration model and a wound closure model. Migration of cancer and endothelial cells was evaluated using 24-transwell Boyden chamber (Costar, Bedford, Mass.) with a polystyrene membrane (6.5 mm diameter, 10 μm thickness, and 8 μm pore size). Cells were suspended in serum-free media and seeded in the upper compartment of each well (2×10^4 cells/well) in the presence or absence of different compounds at the indicated concentrations. The lower compartment contained 600 μl of serum-free culture media supplemented with growth factors. After an 8-hr incubation at 37° C., cells were fixed and stained with 0.1% crystal violet. Non-migrating cells on the upper surface of the filter were removed, and the stained cells that migrated to the lower side were photographed using a phase-contrast microscope (Nikon, Japan) in five random fields. The cells were lysed with 10% acetic acid, and colorimetric determination was made at 595 nm using Wallac Victor 3 plate reader.
# [2] = solubility / precipitation; type: physicochemical; settings: 300 μM, unencapsulated, cell media
# Text: This method has been reported to be efficient for in vivo targeting of cancer cells by other poorly soluble anti-cancer drugs, such as m-porphyrin, tamoxifen, and taxol. Gao Z et al. (2003) J Drug Target 11:87-92; Torchilin V P et al. (2003) Proc Natl Acad Sci USA 100:6039-44.
# The size of the DM-PIT-1-loaded micelles was about 15 nm with a narrow size distribution.
# 4T1 breast cancer = test: syngeneic 4T1 breast tumor growth in BALB/c mice; type: in vivo, mouse
# Method: After inoculation of tumor cells, DM-PIT-1 or DM-PIT-1-M were administered i.v. daily at doses of 0.4 mg/kg and 1 mg/kg, respectively, for 8 days. Tumor volumes as measured every two days are shown.
# The effect of intravenous (i.v.) administration of both unencapsulated DM-PIT-1 in PBS and DM-PIT-1-M on the syngeneic 4T1 breast cancer growth in BALB/c mice was examined. 4T1 metastatic breast cancer cells were first cultured in vitro in DMEM medium containing 10% FBS and antibiotics. After re-suspension in PBS, the 4T1 cancer cells (8×10^4) were injected s.c. into axillary regions of BALB/c mice. The treatment with PIT-1 began on day 11 after inoculation of tumor cells, i.e., when tumors were palpable, but before tumors are precisely measurable (˜50 mm^3). Working solutions of all PIT-1-formulations were made in sterile 0.9% NaCl before injection into mice. Free DM-PIT-1 and micellar DM-PIT-1 were administered i.v. daily at doses of 0.4 and 1 mg/kg, respectively, for 8 days. If the tumor size reached approx. 1000 mm^3, the mice were euthanized using carbon dioxide (CO2) prior to cervical dislocation. Seven mice per group were used. The tumor volume (V) was measured every two days by microcaliper for 8 days. Tumor volume was calculated according to the formula ([…])/2, where α is the longest and b is the shortest diameter of tumor, respectively.
# CD31 = test: tumor angiogenesis in vivo, microvasculature marker CD31; settings: mouse
# Method: Tumor tissues were fixed in phosphate-buffered formalin, embedded in paraffin, cut in 4 μM thickness, and applied to slides. The slides were deparaffinized in xylenes using three changes for 5 min each, and hydrated gradually through graded alcohols: 100% ethanol twice for 10 min each, 95% ethanol twice for 10 min each, and then deionized water for 1 min with stirring. For antigen unmasking, slides were placed in a container, covered with 10 mM sodium citrate buffer, pH 6.0, and heated in a convection steamer for 1 hr. The slides were washed in deionized water three times for 2 min each, blocked with 5% normal goat blocking serum for 30 min, incubated with goat anti-CD31 primary antibody for 1 hr, and incubated with an Alexa Fluor 488-conjugated secondary antibody for 30 min. The slides were analyzed and photographed using a fluorescent microscope. TUNEL staining was performed using FragEL kit according to manufacturer's instructions (Calbiochem).
# In view of the significant inhibitory effect of PIT-1 on angiogenesis observed in vitro, the extent of angiogenesis in DM-PIT-1-treated tumors was examined in vivo using microvasculature marker CD31. […] Suppression of angiogenesis also likely contributed to the suppression of tumor growth by DM-PIT-1 treatment in vivo, considering a relatively low dose of the compound used in the experiments.
# [3] = test system: SV40-transformed mouse adult lung fibroblasts; test: loss of viability, Akt1-expressing vs Akt1-3 triple knockout lung fibroblasts; type: cell-based; settings: P<0.01
# Text: Shaughnessy J D (2008) Nature 454:172-3; Weinstein I G (2002) Science 297:63-4. Therefore, the possibility that PIT-1 may cause preferential cell death in the cells containing elevated PIP3 levels was examined. […] Li D M et al. (1998) Proc Natl Acad Sci USA 95:15406-11. […] This observation is consistent with the notion that PTEN-deficient cancer cells become overly dependent on PIP3 signaling and, therefore, are hypersensitive to disruption of this pathway compared to wild-type PTEN-expressing cells. Neshat M S et al. (2001) Proc Natl Acad Sci USA 98:10314-9.
# cells = test: cell death with inhibitors of mitochondrial respiration and ATP synthase; type: cell-based
# Text: Elstrom R L et al. (2004) Cancer Res 64:3892-9.
# [4] = test system: PH domains of Akt, PDK1, and IRS1; settings: cited from earlier work
# [5] = cited from earlier work
# U87MG cells [6] = test: sensitization of U87MG cells to killing by TRAIL, ATP assay; type: cell-based, human
# Method: FIG. 10 is a bar graph depicting that PITs, as well as Akt inhibitor VIII, sensitize U87MG cells to killing by TRAIL. U87MG cells were incubated with 50 μM PIT-1, PIT-2, PIT-1i-1 or 10 μM Akt inhibitor VIII in the presence or absence of 10 ng/ml TRAIL for 48 hr, followed by cell viability analysis using ATP assay.
# Based on the critical role of PIP3-dependent Akt signaling in the regulation of cell survival, the effect of PIT-1 on the cancer cell viability was tested. Cancer cells were seeded into 96-well plates (white plates for ATP assay; black plates for fluorescent assay; clear plates for MTS assay) at the density of 5-10×10^3 cells per well in 100 μl of the appropriate media. […] For the ATP assay, a luminescence-based commercial kit (CellTiter-Glo, Promega, Madison, Wis.) was used. Thirty microliters of cell lysis/ATP detection reagent was added to each well, mixed for 10 min at room temperature, and the luminescence was measured using a Wallac Victor 3 plate reader (Perkin-Elmer, Wellesley, Mass.). […] Twenty microliters of the combined MTS/PMS solution was added into each well, incubated for 4 hr at 37° C., and the absorbance at 490 nm was measured using a Wallac Victor 3 plate reader. […] Next, 5 μl of 20% (v/v) Triton X-100 solution was added to each well and incubated for 1 hr at 37° C., and the signal was measured again. […]
molecule,measurement,setting,value
Cc1cc(C)cc(C(=O)NC(=S)Nc2cc([N+](=O)[O-])ccc2O)c1 [DM-PIT-1],activity compared to PIT-1 in inhibition of PI3K-PDK1-Akt signaling,PI3K-PDK1-Akt pathway,increased activity
same,activity compared to PIT-1 in inducing cell death in U87MG cells,U87MG cells [1],increased activity
same,activity compared to PIT-1 in inhibition of cell migration,human cancer cells,increased activity
same,precipitation in cell media at 300 μM,[2],significant precipitation
same,tumor growth in vivo compared to control,"4T1 breast cancer; 8-day administration, P<0.01",significantly attenuated tumor growth
same,reduction of tumor volume as compared to control,"4T1 breast cancer; day 8, i.v. daily, free 0.4 mg/kg, micellar 1 mg/kg",58.1%
same,tumor volume,"4T1 breast cancer; day 8, i.v. daily, free 0.4 mg/kg, micellar 1 mg/kg, control 902.5±153",380±52.3 mm^3
same,CD31 loci in treated tumors (angiogenesis in vivo),CD31,attenuation of a number of CD31 loci
"O=c1[nH]c2ccccc2n1C1CCN(Cc2ccc(-c3nc4cc5[nH]cnc5cc4nc3-c3ccccc3)cc2)CC1 [Akt kinase inhibitor VIII, reference compound]",loss of viability in Akt1-expressing fibroblasts compared to Akt1-3 triple knockout cells,[3],comparable
same,"synergy with oligomycin, antimycin A and rotenone in inducing cell death",cells,synergized
same,inhibition of cancer cell migration,human cancer cells; transwell / wound healing models,lack thereof
"CC1=NN(C(=O)c2ccc(Cl)cc2)C(=O)C1N=Nc1ccc(S(=O)(=O)Nc2ncccn2)cc1 (centres unmarked) [NSC 348900, 4-[1-(4-chlorobenzoyl)-3-methyl-5-oxo-4,5-dihydro-1H-pyrazol-4-ylazo]-N-pyrimidine-2-yl-benzenesulfonamide]","interaction with PH domains of Akt, PDK1, and IRS1",[4],capable of interacting
same,in vivo anti-tumor activity,[5],lacked in vivo anti-tumor activity
"TRAIL: Tumor necrosis factor (TNF)-related apoptosis-inducing ligand, 281 amino acid-long member of the TNF family of cytokines (protein, UniProt P50591 1-281, looked up, full-length, Tumor necrosis factor (TNF)-related apoptosis-inducing ligand, 281 amino acid-long member of the TNF family of cytokines) MAMMEVQGGPSLGQTCVLIVIFTVLLQSLCVAVTYVYFTNELKQMQDKYSKSGIACFLKEDDSYWDPNDEESMNSPCWQVKWQLRQLVRKMILRTSEETISTVQEKQQNISPLVRERGPQRVAAHITGTRGRSNTLSSPNSKNEKALGRKINSWESSRSGHSFLSNLHLRNGELVIHEKGFYYIYSQTYFRFQEEIKENTKNDKQMVQYIYKYTSYPDPILLMKSARNSCWSKDAEYGLYSIYQGGIFELKENDRIFVSVTNEHLIDMDHEASFFGAFLVG",sensitivity of U87MG cells to TRAIL alone,U87MG cells [6],entirely resistant
